From patent US20100029615A1, “BENZIMIDAZOLE DERIVATIVES” (priority 2006, published 2010)
Counter-ions that a name gives are not always drawn.

Molecular target: T1, SMO (Mus musculus, UniProt P56726)
T1 construct: endogenous in cells; host or cells: C3H10T1/2 (ATCC #CCL-226)
Assay: Smoothened (SMO)/Sonic Hedgehog (SHh) Transient Transcriptional Activation Assay (Gli-luciferase reporter in C3H10T1/2 cells)
Type: cell-based, murine
Details: SHh 250 ng/ml, 20 hrs; for inhibition at 2 µM: C3H 10T1/2, 2 μM test compound, read-out: SMO CELL % INHIBITION @ 2 μM
Summary of the method: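 C3H10T1/2 cells transiently transfected with a 10× murine Gli-responsive firefly luciferase reporter plus pEGFP, serum-starved 20 h in 0.5% calf serum, then treated with compounds (2 uM–2 nM final) and 250 ng/ml recombinant human SHh for 20 h at 37 °C. Read-out: Dual-Glo luminescence.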

T1 sequence (P56726 33-793): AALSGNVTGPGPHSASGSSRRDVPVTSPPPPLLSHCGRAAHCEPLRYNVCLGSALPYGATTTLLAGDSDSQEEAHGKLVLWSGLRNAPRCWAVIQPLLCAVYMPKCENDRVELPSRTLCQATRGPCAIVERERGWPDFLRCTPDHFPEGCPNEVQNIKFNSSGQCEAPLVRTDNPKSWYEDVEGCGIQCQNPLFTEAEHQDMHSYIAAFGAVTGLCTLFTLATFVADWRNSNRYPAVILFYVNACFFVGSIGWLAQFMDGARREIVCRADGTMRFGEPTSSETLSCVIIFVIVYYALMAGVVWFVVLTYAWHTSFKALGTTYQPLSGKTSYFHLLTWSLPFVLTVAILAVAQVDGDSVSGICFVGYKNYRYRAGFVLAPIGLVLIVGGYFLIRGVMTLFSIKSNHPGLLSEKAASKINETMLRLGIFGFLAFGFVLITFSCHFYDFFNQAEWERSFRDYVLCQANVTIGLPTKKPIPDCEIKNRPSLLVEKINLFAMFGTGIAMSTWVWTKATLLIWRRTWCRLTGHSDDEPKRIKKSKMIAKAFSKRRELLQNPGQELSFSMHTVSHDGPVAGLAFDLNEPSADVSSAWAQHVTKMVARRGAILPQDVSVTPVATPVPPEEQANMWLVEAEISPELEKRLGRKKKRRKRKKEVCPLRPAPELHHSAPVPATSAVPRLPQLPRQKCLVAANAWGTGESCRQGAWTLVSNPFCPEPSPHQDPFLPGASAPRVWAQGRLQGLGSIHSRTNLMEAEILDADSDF

| Structure (SMILES) | inhibition at 2 µM [%] | SMO CELL % INHIBITION @ 2 μM (2 μM test compound, 2 µM) [%] |
| --- | --- | --- |
| COc1ccc2nc([C@H]3CCC[C@@H](NC(=O)c4ccc5c(c4)OCCO5)C3)[nH]c2c1 [Example 180, N-[(1R,3S)-3-(6-methoxy-1H-benzimidazol-2-yl)cyclohexyl]-2,3-dihydro-1,4-benzodioxine-6-carboxamide HCl] | 107 | – |
| O=C(N[C@@H]1CCC[C@H](c2nc3ccccc3[nH]2)C1)c1cc2cc(Cl)ccc2o1 [Example 181, N-[(1R,3S)-3-(1H-benzimidazol-2-yl)cyclohexyl]-5-chloro-1-benzofuran-2-carboxamide triflouroacetate] | 104 | – |
| O=C(N[C@@H]1CCC[C@H](c2nc3ccccc3[nH]2)C1)c1cc2ccccc2s1 [Example 182, N-[(1R,3S)-3-(1H-benzimidazol-2-yl)cyclohexyl]-1-benzothiophene-2-carboxamide triflouroacetate] | 106 | – |
| Cc1ccc(C(=O)N[C@@H]2CCC[C@H](c3nc4ccccc4[nH]3)C2)c2ccccc12 [Example 183, N-[(1R,3S)-3-(1H-benzimidazol-2-yl)cyclohexyl]-4-methyl-1-naphthamide triflouroacetate] | 95 | – |
| COc1ccc2oc(C(=O)N[C@@H]3CCC[C@H](c4nc5ccccc5[nH]4)C3)cc2c1 [Example 184, N-[(1R,3S)-3-(1H-benzimidazol-2-yl)cyclohexyl]-5-methoxy-1-benzofuran-2-carboxamide triflouroacetate] | 61 | – |
| O=C(N[C@@H]1CCC[C@H](c2nc3ccccc3[nH]2)C1)[C@@H]1COc2ccccc2O1 [Example 185, (2S)-N-[(1R,3S)-3-(1H-benzimidazol-2-yl)cyclohexyl]-2,3-dihydro-1,4-benzodioxine-2-carboxamide triflouroacetate] | 81 | – |
| O=C(N[C@@H]1CCC[C@H](c2nc3ccccc3[nH]2)C1)c1ccc2c(c1)OCO2 [Example 186, N-[(1R,3S)-3-(1H-benzimidazol-2-yl)cyclohexyl]-1,3-benzodioxole-5-carboxamide triflouroacetate] | 59 | – |
| O=C(N[C@@H]1CCC[C@H](c2nc3ccccc3[nH]2)C1)c1ccc2ccccc2c1 [Example 187, N-[(1R,3S)-3-(1H-benzimidazol-2-yl)cyclohexyl]-2-naphthamide triflouroacetate] | 94 | – |
| O=C(N[C@@H]1CCC[C@H](c2nc3ccccc3[nH]2)C1)c1cccc2ccccc12 [Example 188, N-[(1R,3S)-3-(1H-benzimidazol-2-yl)cyclohexyl]-1-naphthamide triflouroacetate] | 64 | – |
| Cc1c(C(=O)N[C@@H]2CCC[C@H](c3nc4ccccc4[nH]3)C2)oc2ccccc12 [Example 189, N-[(1R,3S)-3-(1H-benzimidazol-2-yl)cyclohexyl]-3-methyl-1-benzofuran-2-carboxamide triflouroacetate] | 65 | – |
| O=C(N[C@@H]1CCC[C@H](c2nc3ccccc3[nH]2)C1)c1ccc2nonc2c1 [Example 190, N-[(1R,3S)-3-(1H-benzimidazol-2-yl)cyclohexyl]-2,1,3-benzoxadiazole-5-carboxamide triflouroacetate] | 37 | – |
| Cc1ccc2[nH]c(C(=O)N[C@@H]3CCC[C@H](c4nc5ccccc5[nH]4)C3)c(C)c2c1 [Example 191, N-[(1R,3S)-3-(1H-benzimidazol-2-yl)cyclohexyl]-3,5-dimethyl-1H-indole-2-carboxamide triflouroacetate] | 107 | – |
| Cc1[nH]c2ccc(C(=O)N[C@@H]3CCC[C@H](c4nc5ccccc5[nH]4)C3)cc2c1C [Example 192, N-[(1R,3S)-3-(1H-benzimidazol-2-yl)cyclohexyl]-2,3-dimethyl-1H-indole-5-carboxamide triflouroacetate] | 109 | – |
| O=C(N[C@@H]1CCC[C@H](c2nc3ccccc3[nH]2)C1)C1=Cc2ccccc2OC1 [Example 193, N-[(1R,3S)-3-(1H-benzimidazol-2-yl)cyclohexyl]-2H-chromene-3-carboxamide triflouroacetate] | 53 | – |
| Cc1cc(C)n2nc(C(=O)N[C@@H]3CCC[C@H](c4nc5ccccc5[nH]4)C3)cc2n1 [Example 194, N-[(1R,3S)-3-(1H-benzimidazol-2-yl)cyclohexyl]-5,7-dimethylpyrazolo-[1,5-a]pyrimidine-2-carboxamide triflouroacetate] | 47 | – |
| O=C(N[C@@H]1CCC[C@H](c2nc3ccccc3[nH]2)C1)C1COc2ccccc2C1 (stereo partly drawn) [Example 195, N-[(1R,3S)-3-(1H-benzimidazol-2-yl)cyclohexyl] chromane-3-carboxamide triflouroacetate] | 81 | – |
| O=C(N[C@@H]1CCC[C@H](c2nc3ccccc3[nH]2)C1)C1COc2ccccc2O1 (stereo partly drawn) [Example 196, N-[(1R,3S)-3-(1H-benzimidazol-2-yl)cyclohexyl]-2,3-dihydro-1,4-benzodioxine-2-carboxamide triflouroacetate] | 70 | – |

| Structure (SMILES) | inhibition at 2 µM [%] | SMO CELL % INHIBITION @ 2 μM (2 μM test compound, 2 µM) [%] |
| --- | --- | --- |
| Cc1nc2cc(C(=O)N[C@@H]3CCC[C@H](c4nc5ccccc5[nH]4)C3)ccc2[nH]1 [Example 197, N-[(1R,3S)-3-(1H-benzimidazol-2-yl)cyclohexyl]-2-methyl-1H-benzimidazole-5-carboxamide triflouroacetate] | 50 | – |
| O=C(N[C@@H]1CCC[C@H](c2nc3ccccc3[nH]2)C1)c1ccc2c(c1)CCO2 [Example 198, N-[(1R,3S)-3-(1H-benzimidazol-2-yl)cyclohexyl]-2,3-dihydro-1-benzofuran-5-carboxamide triflouroacetate] | 85 | – |
| O=C(N[C@@H]1CCC[C@H](c2nc3ccccc3[nH]2)C1)c1n[nH]c2ccccc12 [Example 199, N-[(1R,3S)-3-(1H-benzimidazol-2-yl)cyclohexyl]-1H-indazole-3-carboxamide triflouroacetate] | 67 | – |
| CN1CCCc2cc(C(=O)N[C@@H]3CCC[C@H](c4nc5ccccc5[nH]4)C3)ccc21 [Example 200, N-[(1R,3S)-3-(1H-benzimidazol-2-yl)cyclohexyl]-1-methyl-1,2,3,4-tetrahydroquino-line-6-carboxamide HCl] | 110 | – |
| CN1CCCc2cc(C(=O)N[C@@H]3CCC[C@H](c4nc5ccccc5[nH]4)C3)ccc21 [Example 201, N-[(1R,3S)-3-(1H-benzimidazol-2-yl)cyclohexyl]-1-methyl-1,2,3,4-tetrahydroquino-line-6-carboxamide triflouroacetate] | – | 101 |
| O=C(N[C@@H]1CCC[C@H](c2nc3ccccc3[nH]2)C1)c1ccc2snnc2c1 [Example 202, N-[(1R,3S)-3-(1H-benzimidazol-2-yl)cyclohexyl]-1,2,3-benzothiadiazole-5-carboxamide triflouroacetate] | 34 | – |
| O=C(N[C@@H]1CCC[C@H](c2nc3ccccc3[nH]2)C1)c1ccc2cc[nH]c2c1 [Example 203, N-[(1R,3S)-3-(1H-benzimidazol-2-yl)cyclohexyl]-1H-indole-6-carboxamide triflouroacetate] | 109 | – |
| Cc1nn(C)c2sc(C(=O)N[C@@H]3CCC[C@H](c4nc5ccccc5[nH]4)C3)cc12 [Example 204, N-[(1R,3S)-3-(1H-benzimidazol-2-yl)cyclohexyl]-1,3-dimethyl-1H-thieno[2,3-c]pyrazole-5-carboxamide triflouroacetate] | 103 | – |
| O=C(N[C@@H]1CCC[C@H](c2nc3ccccc3[nH]2)C1)c1c[nH]c2ccccc12 [Example 205, N-[(1R,3S)-3-(1H-benzimidazol-2-yl)cyclohexyl]-1H-indole-3-carboxamide triflouroacetate] | 54 | – |
| O=C(N[C@@H]1CCC[C@H](c2nc3ccccc3[nH]2)C1)c1ccc2nsnc2c1 [Example 206, N-[(1R,3S)-3-(1H-benzimidazol-2-yl)cyclohexyl]-2,1,3-benzothiadiazole-5-carboxamide triflouroacetate] | 56 | – |
| O=C(N[C@@H]1CCC[C@H](c2nc3ccccc3[nH]2)C1)[C@H]1CCc2ccccc2O1 [Example 207, (2R)-N-[(1R,3S)-3-(1H-benzimidazol-2-yl)cyclohexyl]-chromane-2-carboxamide triflouroacetate] | 107 | – |
| COc1cccc2[nH]c(C(=O)N[C@@H]3CCC[C@H](c4nc5ccccc5[nH]4)C3)cc12 [Example 208, N-[(1R,3S)-3-(1H-benzimidazol-2-yl)cyclohexyl]-4-methoxy-1H-indole-2-carboxamide triflouroacetate] | 80 | – |
| O=C(N[C@@H]1CCC[C@H](c2nc3ccccc3[nH]2)C1)c1cc2ccc(F)cc2[nH]1 [Example 209, N-[(1R,3S)-3-(1H-benzimidazol-2-yl)cyclohexyl]-6-fluoro-1H-indole-2-carboxamide triflouroacetate] | 32 | – |
| O=C(N[C@@H]1CCC[C@H](c2nc3ccccc3[nH]2)C1)c1cc2ccc(Cl)cc2[nH]1 [Example 210, N-[(1R,3S)-3-(1H-benzimidazol-2-yl)cyclohexyl]-6-chloro-1H-indole-2-carboxamide triflouroacetate] | 88 | – |
| COc1ccc2cc(C(=O)N[C@@H]3CCC[C@H](c4nc5ccccc5[nH]4)C3)[nH]c2c1 [Example 211, N-[(1R,3S)-3-(1H-benzimidazol-2-yl)cyclohexyl]-6-methoxy-1H-indole-2-carboxamide triflouroacetate] | 89 | – |
| O=C(N[C@@H]1CCC[C@H](c2nc3ccccc3[nH]2)C1)c1n[nH]c2c1CCCCCC2 [Example 212, N-[(1R,3S)-3-(1H-benzimidazol-2-yl)cyclohexyl]-4,5,6,7,8,9-hexahydro-1H-cycloocta[c] pyrazole-3-carboxamide triflouroacetate] | 71 | – |
| O=C(N[C@@H]1CCC[C@H](c2nc3ccccc3[nH]2)C1)c1ccc2oc(=O)[nH]c2c1 [Example 213, N-[(1R,3S)-3-(1H-benzimidazol-2-yl)cyclohexyl]-2-oxo-2,3-dihydro-1,3-benzoxazole-5-carboxamide triflouroacetate] | 73 | – |
